This note sets out measurements from patent US20250082793A1, “MACROCYCLIC COMPOUNDS AND METHODS OF MAKING THE SAME” (JANSSEN BIOTECH, INC., priority 2021, published 2025).

The nature of the data set: Chelation test with La^3+ (HPLC chromatograms prior and subsequent to mixing). Type of data set: physicochemical. The conditions noted are these: prior vs subsequent to mixing with La^3+.

`CC(C)CCC(c1cccc(C(=O)O)n1)N1CCOCCOCCN(Cc2cccc(C(=O)O)n2)CCOCCOCC1` (centres unmarked) [TOPA-[C7]-isopentyl, 6-((16-(1-(6-carboxypyridin-2-yl)-4-methylpentyl)-1,4,10,13-tetraoxa-7,16-diazacyclooctadecan-7-yl)methyl)picolinic acid]: the “chelation of La^3+ indicated by shift in HPLC retention time” value is “rapid chelation of La^3+ and Ac-225”.

As to `O=C(O)c1cccc(CN2CCOCCOCCN(C(c3ccccc3)c3cccc(C(=O)O)n3)CCOCCOCC2)n1` (centres unmarked) [TOPA-[C7]-phenyl, 6-((16-((6-carboxypyridin-2-yl)(phenyl)methyl)-1,4,10,13-tetraoxa-7,16-diazacyclooctadecan-7-yl)methyl)picolinic acid], the “chelation of La^3+ indicated by shift in HPLC retention time” value was “rapid chelation of La^3+”.
